For one series, the target named is T1, rhBMP-2 dimers (Homo sapiens, UniProt P12643).
T1 sequence (P12643 283-396): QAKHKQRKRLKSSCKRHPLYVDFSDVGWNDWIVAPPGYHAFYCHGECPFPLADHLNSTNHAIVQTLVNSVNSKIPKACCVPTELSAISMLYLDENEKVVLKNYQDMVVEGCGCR
Put plainly: solubilization of rhBMP-2 pellets in phosphate buffered saline with pyrrolidones. The conditions noted are these: 2 h in phosphate buffered saline with increasing amounts of pyrrolidone.

Series [1] has as its system MC3T3-E1 cells. In words: alkaline phosphatase activity as marker of maturation of preosteoblastic cell line. It counts as cell-based. As to the method: (§1) MC3T3-E1 cells were grown in an alpha-modified Minimum Essential Medium (Life Technologies, Inc., Grand Island, N.Y.) containing 10% fetal calf serum (Life Technologies, Inc.), 50 μg/ml gentamycin, and 50 μg/ml ascorbic acid. C3H10T1/2 cells were grown in basal medium Eagle, and 50 μg/ml gentamycin. To examine the action of NMP on both cell lines, 1×10^5 cells per well were plated in 6-well plates and NMP subsequently added. Medium exchange was performed after 3 days and alkaline phosphatase (ALP) was determined according to Lowry, O. et al. [J. Biol. Chem. 207 (1954) 19–37]: p-nitrophenol liberated was converted to p-nitrophenylate by adding 400 μl of 1 M NaOH, which was quantitated by measuring the absorbance at 410 nm (epsilon=17500/molxcm). Alkaline phosphatase activity was normalized to total protein and expressed as nmol nitrophenylate generated per min per mg protein.
First, to verify the osteoinductive activity of NMP an embryonic, murine, mesenchymal stem cell line C3H10T1/2 and a preosteoblastic cell line MC3T3-E1 were used and cultured as described above. C3H10T1/2 cells can differentiate into cartilage, bone or adipose cells, whereas MC3T3-E1 produces and releases autologous BMP. Alkaline phosphatase activity was used as a marker for the differentiation into the osteoblastic lineage. […]

The subject of the next series is C3H10T1/2 cells. Put plainly: alkaline phosphatase activity in mesenchymal stem cell line. It counts as cell-based, murine. The note with it: C3H10T1/2 cells treated with up to 5 mM NMP; data not shown. As to the method: as §1
First, to verify the osteoinductive activity of NMP an embryonic, murine, mesenchymal stem cell line C3H10T1/2 and a preosteoblastic cell line MC3T3-E1 were used and cultured as described above. C3H10T1/2 cells can differentiate into cartilage, bone or adipose cells, whereas MC3T3-E1 produces and releases autologous BMP. Alkaline phosphatase activity was used as a marker for the differentiation into the osteoblastic lineage.

Series [2] deals with MC3T3-E1 cells. In words: mineralization by Alizarin red-S staining. The note with it: 4 weeks, 5 Mm glycerol phosphate and 1 μg/ml rhBMP-2, 2.5 Mm NMP vs no NMP. It counts as cell-based. As to the method: Alizarin red-S staining was performed after 4 weeks according to Bodine, P. V. N., et al. [J Bone Mineral Res 11 (1996) 806–819].

Molecules are shown by their SMILES.

Description for rhBMP-2 dimers: Two to twenty micrograms of the rhBMP protein was lyophilized in a speed-vac to form a solid rhBMP disc. […] After 2 h the protein in the remaining disc was sedimented (22,000×g, 30 min) and the protein content of 20 μl from the supernatant determined by a slot-blot method (Weber, F. E., et al., 2002, supra).

Turning to `O=C1CCCN1` [PB, 2-pyrrolidone], the “potential to solubilize rhBMP-2, grading in declining order” value on rhBMP-2 dimers is listed as 1-methyl-2-pyrrolidone (NMP)>1-ethyl-2-pyrrolidone (NEP)>2-pyrrolidone (PB)>1-cyclohexyl-2-pyrrolidone (CP).
As for `CN1CCCC1=O` [NMP, 1-methyl-2-pyrrolidone], the “potential to solubilize rhBMP-2, grading in declining order” value on rhBMP-2 dimers is recorded as 1-methyl-2-pyrrolidone (NMP)>1-ethyl-2-pyrrolidone (NEP)>2-pyrrolidone (PB)>1-cyclohexyl-2-pyrrolidone (CP). Moreover, the “maturation determined by alkaline phosphatase activity, concentration dependence” value with MC3T3-E1 cells [1] (after 6 days, 0 to 5 Mm of NMP) is recorded as “increases in a concentration dependent manner”. In addition, the “increase of alkaline phosphatase activity (factor)” value with MC3T3-E1 cells [1] (low doses of NMP, MC3T3-E1) is given as 2.5–3.0. Besides, the alkaline phosphatase activity result in the series with C3H10T1/2 cells was “not increased”. Further, the “mineralisation (alizarin-S-staining)” value with MC3T3-E1 cells [2] was “increased mineralisation”.
